Source: patent US12358915B2, “METTL3 inhibitory compounds” (STORM THERAPEUTICS LTD., priority 2019, dated 2025)
Read-outs that look alike come from different tables or passages of the source.

Biological target: T1, METTL3/14 (Homo sapiens, UniProt Q86U44)
T1 construct: The enzyme used was full-length his-tagged METTL3; His; made in house
Assay: METTL3/14 methyltransferase assay (METTL3_14 RFMS, RapidFire mass spectrometry);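 further: recombinant His-tagged METTL3 with FLAG-tagged METTL14 from baculovirus, SAH product quantified by mass spectrometry against isotope-labelled internal standards, 60 min at room temperature, scaled between no-RNA and DMSO-only wells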
Type: biochemical
Conditions: 5 nM METTL3/14, 0.2 μM RNA substrate, 0.5 μM SAM, lower limit of the assay IC50=5 nM, read-out: METTL3_14 RFMS IC50
Protocol: The enzyme used was full-length his-tagged METTL3 co-expressed with full length FLAG-tagged METTL14 in a baculovirus expression system. […] After termination, plates were sealed, centrifuged and stored at 4° C. until analysis. […] Mass Spectrometry Analysis RNA methyltransferase activity was measured label free using the RapidFireTM mass spectrometry (RF/MS) platform. Stopped and stable assay plates were analyzed on the Agilent RF300 integrated autosampler/solid-phase extraction (SPE) system coupled to an ABSciex 4000 mass spectrometer for the generation of the product S-adenosyl homocysteine (SAH) and normalized to the ratio of signal of the two internal product standards, respectively. Solvent A was water containing 0.1% (v/v) TCA. Solvent B was acetonitrile/0.1% ammonium acetate (8:2, v/v). More specifically, plates were centrifuged at 4350 rpm for 10 min, samples were aspirated under vacuum for 600 ms, then loaded onto a C18 solid-phase extraction cartridge and washed for 3 s with solvent A at a flow rate of 1.5 mL/min. Retained product and internal standards were eluted with solvent B at a flow rate of 1 mL/min for 3 s and finally the cartridge was reequilibrated with solvent A for 500 ms.

T1 sequence (Q86U44 whole entry): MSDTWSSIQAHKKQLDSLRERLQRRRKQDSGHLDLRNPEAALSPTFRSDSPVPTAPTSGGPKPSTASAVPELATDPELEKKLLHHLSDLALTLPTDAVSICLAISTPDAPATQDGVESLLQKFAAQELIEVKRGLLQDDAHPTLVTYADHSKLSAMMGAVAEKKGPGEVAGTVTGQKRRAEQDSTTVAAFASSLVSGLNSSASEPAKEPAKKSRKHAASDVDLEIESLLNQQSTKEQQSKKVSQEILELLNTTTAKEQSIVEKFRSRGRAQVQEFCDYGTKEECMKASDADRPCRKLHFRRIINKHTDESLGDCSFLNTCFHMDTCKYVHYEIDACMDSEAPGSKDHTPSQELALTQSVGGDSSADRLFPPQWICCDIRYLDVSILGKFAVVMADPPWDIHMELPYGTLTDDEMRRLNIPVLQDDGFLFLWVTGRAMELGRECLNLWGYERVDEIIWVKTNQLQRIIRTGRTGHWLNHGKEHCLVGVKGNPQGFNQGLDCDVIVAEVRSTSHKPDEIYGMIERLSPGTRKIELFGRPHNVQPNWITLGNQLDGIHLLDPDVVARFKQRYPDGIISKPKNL
T1 sequence (Q9HCE5 whole entry partner): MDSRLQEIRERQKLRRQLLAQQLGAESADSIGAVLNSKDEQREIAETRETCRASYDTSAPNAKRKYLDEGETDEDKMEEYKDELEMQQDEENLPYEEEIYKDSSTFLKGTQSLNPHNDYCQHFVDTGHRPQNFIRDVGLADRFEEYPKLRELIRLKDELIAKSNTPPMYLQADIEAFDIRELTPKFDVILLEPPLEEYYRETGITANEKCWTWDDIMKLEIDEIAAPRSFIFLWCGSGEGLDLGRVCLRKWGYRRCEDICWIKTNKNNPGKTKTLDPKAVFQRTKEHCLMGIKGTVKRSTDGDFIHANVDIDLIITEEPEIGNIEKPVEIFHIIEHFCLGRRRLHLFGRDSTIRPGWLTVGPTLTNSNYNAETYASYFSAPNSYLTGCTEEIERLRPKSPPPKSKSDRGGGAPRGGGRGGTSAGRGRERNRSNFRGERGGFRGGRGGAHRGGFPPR

| SMILES | IC50 (Compounds 63-265) | further results |
| --- | --- | --- |
| CC(=O)NCc1ccc2nc(CNC(=O)c3cccc4[nH]ncc34)cn2c1 [Compound 40, N-{[6-(acetamidomethyl)imidazo[1,2-a]pyridin-2-yl]methyl}-1H-indazole-4-carboxamide] |  | IC50 (Compounds 1-62): 7390 nM |
| O=C(NCc1cn2cc(CN3CCNCC3)ccc2n1)c1cccc2[nH]ncc12 [Compound 38, N-({6-[(piperazin-1-yl)methyl]imidazo[1,2-a]pyridin-2-yl}methyl)-1H-indazole-4-carboxamide] |  | IC50 (Compounds 1-62): 5440 nM |
| O=C(NCc1cn2cc(CO)ccc2n1)c1cc(=O)n2ccccc2n1 [Compound 61, N-{[6-(hydroxymethyl)imidazo[1,2-a]pyridin-2-yl]methyl}-4-oxo-4H-pyrido[1,2-a]pyrimidine-2-carboxamide] |  | IC50 (Compounds 1-62): 695 nM |
| O=C(NCc1cn2cc(CNCc3ccccc3F)ccc2n1)c1cc(=O)n2ccccc2n1 [Compound 77, N-{[6-({[(2-fluorophenyl)methyl]amino}methyl)imidazo [1,2-a]pyridin-2-yl]methyl}-4-oxo-4H-pyrido[1,2-a]pyrimidine-2-carboxamide] | 84 nM |  |
| O=C(NCc1cn2cc(COCc3ccccc3)ccc2n1)c1cc(=O)n2ccccc2n1 [Compound 177] | 1890 nM |  |
| O=C(NCc1cn2cc(CNC3CCCCC3)ccc2n1)c1cc(=O)n2ccccc2n1 [Compound 86, N-({6-[(cyclohexyl-amino)methyl]imidazo[1,2-a]pyridin-2-yl}methyl)-4-oxo-4H-pyrido[1,2-a]pyrimidine-2-carboxamide] | 23.1 nM |  |
| c1cc(-c2ncn(Cc3cn4cc(CNCC5CCC5)ccc4n3)n2)c2cn[nH]c2c1 [Example 341, N-(cyclobutylmethyl)-1-[2-[[3-(1H-indazol-4-yl)-1,2,4-triazol-1-yl]methyl]imidazo[1,2-a]pyridin-6-yl]methanamine] |  | IC50 (Compounds 266-351): 64.4 nM |
| Cc1ccc2nc(Cc3nnc(-c4cccc5[nH]ncc45)s3)cn2c1 [Compound 66, 4-[5-({6-methylimidazo[1,2-a]pyridin-2-yl}methyl)-1,3,4-thiadiazol-2-yl]-1H-indazole] | 1350 nM |  |
| O=C(NCc1cn2cc(CNCC3CCC(F)(F)CC3)ccc2n1)c1cc(=O)n2ccccc2n1 [Compound 101, N-{[6-({[(4,4-difluorocyclohexyl)methyl]amino}methyl)imidazo [1,2-a]pyridin-2-yl]methyl}-4-oxo-4H-pyrido [1,2-a]pyrimidine-2-carboxamide] | 18.1 nM |  |
| Nc1ccc(C(=O)NCc2cn3cc(CNCC4CCCCC4)ccc3n2)cn1 [Compound 176, 6-amino-N-[(6-{[(cyclohexylmethyl)amino]methyl}imidazo[1,2-a]pyridin-2-yl)methyl] pyridine-3-carboxamide] | 909 nM |  |
| CC(C)(C)OCCNCc1ccc2nc(CNC(=O)c3cc(=O)n4ccccc4n3)cn2c1 [Compound 152, N-{[6-({[2-(tert-butoxy)ethyl]amino}methyl)imidazo[1,2-a]pyridin-2-yl]methyl}-4-oxo-4H-pyrido[1,2-a] pyrimidine-2-carboxamide] | 104 nM |  |
| O=C(NCc1cn2cc(CN3CC4CCC3C4)ccc2n1)c1cc(=O)n2ccccc2n1 (centres unmarked) [Compound 350, N-{[6-({2-azabicyclo[2.2.1]heptan-2-yl}methyl)imidazo[1,2-a]pyridin-2-yl]methyl}-4-oxo-4H-pyrido[1,2-a]pyrimidine-2-carboxamide] |  | IC50 (Compounds 266-351): 56.2 nM |
| O=C(NCc1cn2cc(F)ccc2n1)c1cc(=O)n2ccccc2n1 [Compound 22, N-({6-fluoroimidazo[1,2-a]pyridin-2-yl}methyl)-4-oxo-4H-pyrido[1,2-a]pyrimidine-2-carboxamide] |  | IC50 (Compounds 1-62): 2210 nM |
| O=C(NCc1cn2cc(CNC(CO)C3CCCCC3)ccc2n1)c1cc(=O)n2ccccc2n1 (centres unmarked) [Compound 168, N-[(6-{[(1-cyclohexyl-2-hydroxyethyl)amino]methyl}imidazo[1,2-a]pyridin-2-yl)methyl]-4-oxo-4H-pyrido[1,2-a]pyrimidine-2-carboxamide] | 114 nM |  |
| O=C(NCCO)c1cc(-c2cn(Cc3cn4cc(CNCC5CCC5)ccc4n3)nn2)c2cn[nH]c2c1 [Example 301] |  | IC50 (Compounds 266-351): 233 nM |
| O=C(NCc1cn2ccccc2n1)c1cc(=O)c2ccccc2o1 [Compound 13] |  | IC50 (Compounds 1-62): 4180 nM |
| O=C(NCc1cn2cc(CN3CC4CC3CO4)ccc2n1)c1cc(=O)n2ccccc2n1 (centres unmarked) [Compound 349, N-{[6-({2-oxa-5-azabicyclo[2.2.1]heptan-5-yl}methyl)imidazo[1,2-a]pyridin-2-yl]methyl}-4-oxo-4H-pyrido[1,2-a]pyrimidine-2-carboxamide] |  | IC50 (Compounds 266-351): 303 nM |
| CC1(C)CCCCN1Cc1ccc2nc(CNC(=O)c3cc(=O)n4ccccc4n3)cn2c1 [Compound 194, N-({6-[(2,2-dimethylpiperidin-1-yl)methyl]imidazo[1,2-a]pyridin-2-yl}methyl)-4-oxo-4H-pyrido[1,2-a]pyrimidine-2-carboxamide] | 305 nM |  |

Second part, led by results:

| IC50 (Compounds 63-265) | SMILES | further results |
| --- | --- | --- |
| 247 nM | O=C(NCc1cn2cc(CN3CCCCC3)ccc2n1)c1cc(=O)c2ccccc2o1 [Compound 219, 4-oxo-N-({6-[(piperidin-1-yl)methyl]imidazo[1,2-a]pyridin-2-yl}methyl)-4H-chromene-2-carboxamide] |  |
| 44.1 nM | O=C(NCc1cn2cc(CNCC3(F)CCCC3)ccc2n1)c1cc(=O)n2ccccc2n1 [Compound 198, N-{[6-({[(1-fluorocyclopentyl)methyl]amino}methyl)imidazo [1,2-a]pyridin-2-yl]methyl}-4-oxo-4H-pyrido [1,2-a]pyrimidine-2-carboxamide] |  |
| 221 nM | O=C(NCc1cn2cc(CNC[C@H](O)C(F)(F)F)ccc2n1)c1cc(=O)n2ccccc2n1 [Compound 125, 4-oxo-N-{[6-({[(2S)-3,3,3-trifluoro-2-hydroxypropyl]amino}methyl)imidazo[1,2-a]pyridin-2-yl]methyl}-4H-pyrido[1,2-a] pyrimidine-2-carboxamide] |  |
| 19.5 nM | CC1(C)CC1CNCc1ccc2nc(CNC(=O)c3cc(=O)n4ccccc4n3)cn2c1 (centres unmarked) [Compound 159, N-{[6-({[(2,2-dimethyl-cyclopropyl)methyl]amino}methyl)imidazo [1,2-a]pyridin-2-yl]methyl}-4-oxo-4H-pyrido [1,2-a]pyrimidine-2-carboxamide] |  |
| 81.3 nM | O=C(NCc1cn2cc([C@H]3COC[C@@H](C4CCCCC4)N3)ccc2n1)c1cc(=O)n2ccccc2n1 [Example 230, N-({6-[(3S,5R)-5-cyclohexylmorpholin-3-yl]imidazo[1,2-a]pyridin-2-yl}methyl)-4-oxo-4H-pyrido[1,2-a]pyrimidine-2-carboxamide] |  |
| 1260 nM | COC(=O)C1CCCN(Cc2ccc3nc(CNC(=O)c4cc(=O)n5ccccc5n4)cn3c2)C1 (centres unmarked) [Compound 200, methyl 1-({2-[({4-oxo-4H-pyrido[1,2-a]pyrimidin-2-yl}formamido)methyl]imidazo [1,2-a]pyridin-6-yl}methyl) piperidine-3-carboxylate] |  |
| 735 nM | O=C(NCc1cn2cc(C3(NCC4CCCCC4)CC3)ccc2n1)c1cc(=O)n2ccccc2n1 [Compound 245, N-[(6-{1-[(cyclohexylmethyl)amino]cyclopropyl}imidazo[1,2-a]pyridin-2-yl)methyl]-4-oxo-4H-pyrido[1,2-a]pyrimidine-2-carboxamide] |  |
| 239 nM | CC(C)(C)[C@H]1COC[C@@H](c2ccc3nc(CNC(=O)c4cc(=O)n5ccccc5n4)cn3c2)N1 [Example 228, N-({6-[(3R,5S)-5-tert-butylmorpholin-3-yl]imidazo[1,2-a]pyridin-2-yl}methyl)-4-oxo-4H-pyrido[1,2-a]pyrimidine-2-carboxamide] |  |
